Test results: US6476043B1, “Use of camptothecin derivatives, with reduced gastrointestinal toxicity” (Aventis Pharma S.A., priority 1998, dated 2002)

How the values were obtained:
[1] = mice, CPT-11 40 mg/kg i.v.; CPT-11 group versus CPT-11/NaCl group, days 1 and 5
Experimental: The body weight is measured on days 1, 3, 6 and 8. The plasma samples for the toxicokinetic analysis are taken on days 1 and 5. […] The relative and absolute weights of the thymus, of the spleen and of the testicles are measured, and the complete gastrointestinal tract, the sternal bone marrow, the thymus, the spleen, the testicles and the epididymes are removed from all the mice and subjected to examination under a microscope.

[2] = system: CD1 male mice; test: Study I: protective effect of oral sodium chloride solution on the intestinal toxicity of intravenous CPT-11; assay type: in vivo
Experimental: The body weight is recorded on days 1, 6, 11 and 13. […] The complete gastrointestinal tract is removed from all of the mice. The gastrointestinal tract of the mice which survived to the end of the observation period is subjected to examination under a microscope.

[3] = system: female Beagle dogs
Experimental: The animals are kept with no administration for 2 days after the final administration of sodium chloride at 9 g/l (up to day 9).
The body weight is recorded during the pretest period and on days 5 and 9. The animals are sacrificed and autopsied on day 9. Representative tissue samples taken from the gastrointestinal tract are removed from all the animals and subjected to examination under a microscope.

[4] = system: mammary adenocarcinoma MA16/C; test: Study IV: effect of oral sodium chloride solution on the antitumour activity of intravenous CPT-11
Description: A Log tumour cell kill value of 0.7 corresponds to minimum activity, while a value greater than 2.8 corresponds to a high level of activity.

Structure (SMILES)	areas under the curve (AUC) [1]	maximum plasma concentrations (Cmax) [1]	loss of body weight ([2]; CPT-11 40 mg/kg i.v. days 6 to 10, CPT-11 group compared with CPT-11/NaCl group)	severity of microscopic intestinal lesions (loss of crypts, shortening of villi) ([2]; CPT-11 40 mg/kg i.v. days 6 to 10, autopsy day 13, small intestine)	mortality linked to the administration of CPT-11 ([2]; CPT-11 40 mg/kg i.v. days 6 to 10, observed on days 6 and 7, dead/total mice)	severity of gastrointestinal lesions (degeneration of the mucosa) ([3]; CPT-11 20 mg/kg single i.v. dose on day 6, autopsy day 9)	redness on the mucosa of the large intestine (frequency) ([3]; CPT-11 20 mg/kg single i.v. dose, CPT-11 group compared with CPT-11/NaCl group)	total cumulative dose at the maximum nontoxic dose ([4]; C3H/HeN female mice carrying MA16/C, i.v. for 5 consecutive days) [mg/kg]	maximum loss of body weight ([4]; at the maximum nontoxic dose, day 11 (CPT-11 group), day 12 (CPT-11/NaCl group)) [%]	Log cell kill value ([4]; mammary adenocarcinoma MA16/C s.c. in C3H/HeN female mice, at the maximum nontoxic dose)
CCc1c2c(nc3ccc(OC(=O)N4CCC(N5CCCCC5)CC4)cc13)-c1cc3c(c(=O)n1C2)COC(=O)[C@]3(O)CC [CPT-11, irinotecan]	identical	identical	greater	moderate to pronounced	7/15	moderate to pronounced	more common	118	10	1.7
CCc1c2c(nc3ccc(O)cc13)-c1cc3c(c(=O)n1C2)COC(=O)[C@]3(O)CC [SN-38]	identical	identical	–	–	–	–	–	–	–	–
